# According to the supplement of paper PMC10307832:
# Assays:
# Experiment in all cases: relative viability (nuclei count vs DMSO), 5 days (fraction); higher = more cells survive
# [1] = compound: Cn1nnc2c(C(N)=O)ncn2c1=O [Temozolomide] + C[C@@H](Oc1cc(-c2cnn(C3CCNCC3)c2)cnc1N)c1c(Cl)ccc(F)c1Cl [Crizotinib] (partner 1 µM)
# Procedure, shortened: (§1)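 Relative viability equals treated-well nuclei counts divided by vehicle-well nuclei counts. Counts came from 4× images of lung cancer cell lines grown in 1536-well plates for 5 days after pin-tool dosing on the day after seeding. Dosing used one drug alone or a fixed anchor-drug dose plus five library-drug doses (not always all listed) in √10 steps, and values are medians of duplicate plates.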
# AZD5582 + Tozasertib = compound: C[C@@H](C(=O)N[C@@H](C1CCCCC1)C(=O)N2CCC[C@H]2C(=O)N[C@@H]3[C@@H](CC4=CC=CC=C34)OCC#CC#CCO[C@@H]5CC6=CC=CC=C6[C@@H]5NC(=O)[C@@H]7CCCN7C(=O)[C@H](C8CCCCC8)NC(=O)[C@H](C)NC)NC [AZD5582] + Cc1cc(Nc2cc(N3CCN(C)CC3)nc(Sc3ccc(NC(=O)C4CC4)cc3)n2)n[nH]1 [Tozasertib] (partner 0.1 µM)
# Procedure, shortened: as §1
# [2] = compound: Cn1nnc2c(C(N)=O)ncn2c1=O [Temozolomide] + Nc1nc2[nH]cc(CCc3ccc(C(=O)N[C@@H](CCC(=O)O)C(=O)O)cc3)c2c(=O)[nH]1 [Pemetrexed] (partner 0.2 µM)
# Procedure, shortened: as §1
# [3] = compound: Cn1nnc2c(C(N)=O)ncn2c1=O [Temozolomide] + CC1(C)CCC(c2ccc(Cl)cc2)=C(CN2CCN(c3ccc(C(=O)NS(=O)(=O)c4ccc(N[C@H](CCN5CCOCC5)CSc5ccccc5)c(S(=O)(=O)C(F)(F)F)c4)cc3)CC2)C1 [Navitoclax] (partner 0.5 µM)
# Procedure, shortened: as §1
Cell Line,relative viability ([1]; first compound 0.2 µM),relative viability ([1]; first compound 0.6325 µM),relative viability ([1]; first compound 2 µM),relative viability ([1]; first compound 6.325 µM),relative viability ([1]; first compound 20 µM),relative viability (AZD5582 + Tozasertib; first compound 0.001581 µM),relative viability (AZD5582 + Tozasertib; first compound 0.005 µM),relative viability (AZD5582 + Tozasertib; first compound 0.01581 µM),relative viability (AZD5582 + Tozasertib; first compound 0.05 µM),relative viability ([2]; first compound 0.2 µM),relative viability ([2]; first compound 0.6325 µM),relative viability ([2]; first compound 2 µM),relative viability ([2]; first compound 6.325 µM),relative viability ([2]; first compound 20 µM),relative viability ([3]; first compound 0.2 µM),relative viability ([3]; first compound 0.6325 µM),relative viability ([3]; first compound 2 µM),relative viability ([3]; first compound 6.325 µM),relative viability ([3]; first compound 20 µM)
201T,1.02,1.09,1.08,0.834,0.986,1.01,1.07,0.961,1.13,0.346,0.345,0.398,0.339,0.316,1.17,1.18,1.21,1.2,1.22
A549,0.809,0.829,0.869,0.754,0.816,–,–,–,–,–,–,–,–,–,1.07,1.34,1.25,1.23,1.24
A-427,0.927,0.775,0.815,0.594,0.428,0.201,0.198,0.221,0.167,1.01,0.919,0.957,0.783,0.549,0.971,0.923,0.949,0.596,0.592
ABC-1,1.11,0.91,1.14,1.17,1.34,0.157,0.169,0.196,0.166,–,–,–,–,–,–,–,–,–,–
BEN,0.649,0.858,0.814,0.815,0.717,0.479,0.53,0.577,0.51,0.801,0.92,0.936,0.741,0.841,0.0644,0.0697,0.0579,0.0678,0.0653
CAL-12T,0.93,0.744,0.587,0.695,0.733,0.219,0.226,0.282,0.228,1.34,1.12,1.1,1.16,1.39,1.35,1.13,1.21,1.29,1.26
COR-L23,0.925,0.701,0.669,0.503,0.614,0.187,0.246,0.257,0.241,0.188,0.211,0.19,0.184,0.217,1.2,0.933,1.02,0.976,0.938
COR-L 105,0.739,0.913,0.827,0.787,0.841,0.373,0.404,0.282,0.418,1.12,1.07,1.02,1.06,1.06,0.819,0.866,0.996,0.858,0.649
Calu-6,0.997,0.83,0.904,0.817,0.767,–,–,–,–,–,–,–,–,–,0.927,0.804,0.942,0.82,0.781
ChaGo-K-1,1.3,1.16,1.15,0.646,1.12,0.242,0.231,0.208,0.215,0.258,0.256,0.263,0.257,0.246,1.11,1.16,1.45,0.968,0.964
EBC-1,0.167,0.2,0.229,0.208,0.194,–,–,–,–,–,–,–,–,–,0.512,0.41,0.358,0.384,0.404
EKVX,0.357,1.07,0.951,0.886,0.551,0.309,0.41,0.388,0.371,–,0.38,0.352,0.388,0.305,0.856,0.962,0.902,0.976,0.597
EMC-BAC-2,0.842,0.74,0.789,0.768,0.804,0.271,0.269,0.288,0.187,0.468,0.445,0.485,0.415,0.509,1.07,1.24,1.16,1.2,1.2
EPLC-272H,0.851,0.986,0.925,0.962,0.728,0.15,–,0.292,0.076,0.321,0.322,0.356,0.247,0.317,1.15,1.01,1.12,0.996,0.879
H3255,–,0.822,0.795,0.798,0.179,0.553,0.609,0.676,0.509,–,0.544,0.59,0.543,0.336,–,0.523,0.469,0.485,0.0789
HARA,1.04,1.05,1.15,1.01,0.949,0.0907,0.117,0.13,0.0952,0.203,0.228,0.269,0.2,0.273,1.19,1.17,1.24,1.13,1.2
HCC-15,0.872,0.918,0.807,0.805,0.905,0.375,0.42,0.473,0.459,0.24,0.221,0.227,0.207,0.228,0.746,0.731,0.805,0.687,0.689
HCC-44,0.786,0.796,0.791,0.831,0.826,0.482,0.642,0.798,0.324,0.688,0.669,0.699,0.707,0.653,0.972,1.02,0.913,0.966,0.983
HCC-78,0.293,0.331,0.382,0.361,0.248,1.42,0.515,0.428,0.529,0.896,0.921,0.927,–,0.958,0.48,0.738,0.953,0.836,0.793
HCC-366,0.519,0.604,0.402,0.622,0.447,0.0633,0.134,–,0.155,0.143,0.17,0.188,0.165,0.155,1.07,1.18,1.14,1.17,0.918
HCC-827,0.992,0.932,0.932,0.902,0.172,0.398,0.489,0.436,0.396,0.176,0.273,0.249,0.264,0.16,1.07,1.07,0.992,0.984,0.129

Cell Line,relative viability ([1]; first compound 0.2 µM),relative viability ([1]; first compound 0.6325 µM),relative viability ([1]; first compound 2 µM),relative viability ([1]; first compound 6.325 µM),relative viability ([1]; first compound 20 µM),relative viability (AZD5582 + Tozasertib; first compound 0.001581 µM),relative viability (AZD5582 + Tozasertib; first compound 0.005 µM),relative viability (AZD5582 + Tozasertib; first compound 0.01581 µM),relative viability (AZD5582 + Tozasertib; first compound 0.05 µM),relative viability ([2]; first compound 0.2 µM),relative viability ([2]; first compound 0.6325 µM),relative viability ([2]; first compound 2 µM),relative viability ([2]; first compound 6.325 µM),relative viability ([2]; first compound 20 µM),relative viability ([3]; first compound 0.2 µM),relative viability ([3]; first compound 0.6325 µM),relative viability ([3]; first compound 2 µM),relative viability ([3]; first compound 6.325 µM),relative viability ([3]; first compound 20 µM)
HOP-62,1.12,0.991,1.05,0.801,0.965,0.318,0.339,0.35,0.32,0.302,0.264,0.287,0.314,0.294,1.05,1,1.13,0.941,1.14
IA-LM,1.27,0.719,1.09,0.706,0.962,–,–,–,–,–,–,–,–,–,0.832,0.69,0.836,0.825,0.615
LC-2-ad,0.455,0.443,0.51,0.443,0.437,0.363,0.493,0.418,0.4,0.281,0.296,0.279,0.291,0.287,0.598,0.437,0.358,0.374,0.336
LCLC-97TM1,0.344,0.237,0.342,0.33,0.375,0.206,0.235,0.206,0.187,0.195,0.198,0.177,0.156,0.209,0.546,0.443,0.49,0.445,0.512
LCLC-103H,1.03,1.04,1.08,1.05,1.05,0.377,0.409,0.455,0.315,0.467,0.461,0.519,0.465,0.515,–,–,–,–,–
LK-2,0.26,0.229,0.252,0.206,0.213,0.161,0.174,0.149,0.182,0.284,0.288,0.299,0.264,0.277,0.756,0.874,0.851,0.475,0.35
NCI-H358,0.785,0.62,0.686,0.552,0.559,0.126,0.109,0.102,0.101,0.196,0.173,0.18,0.164,0.17,–,–,–,–,–
NCI-H522,–,–,–,–,–,0.592,0.491,0.594,0.524,0.765,0.972,1.27,0.984,0.804,–,–,–,–,–
NCI-H650,0.679,0.697,0.607,0.725,0.669,0.648,0.876,0.722,0.628,0.934,0.902,0.963,0.96,0.961,–,–,–,–,–
NCI-H661,0.828,0.93,0.942,0.944,1.02,0.361,0.368,0.389,0.358,0.92,0.882,1.01,0.858,0.759,–,–,–,–,–
NCI-H727,0.876,0.73,0.812,0.791,0.763,0.651,0.732,0.58,0.78,–,–,–,–,–,0.409,0.428,0.496,0.469,0.324
NCI-H1299,1.02,0.934,0.988,0.989,0.975,–,–,–,–,–,–,–,–,–,1.04,1.09,1.06,1.01,1.08
NCI-H1395,–,–,–,–,–,0.703,0.714,0.81,0.797,0.931,0.983,1.03,0.769,0.754,1.26,1.14,1.14,1.1,1.05
NCI-H1563,0.911,0.853,0.965,0.847,0.729,–,–,–,–,0.71,0.798,0.744,0.739,0.747,–,–,–,–,–
NCI-H1623,–,–,–,–,–,0.441,0.455,0.444,0.432,–,–,–,–,–,–,–,–,–,–
NCI-H1648,–,–,–,–,–,–,0.549,0.37,0.615,–,0.614,0.554,0.696,0.82,–,–,–,–,–
NCI-H1792,0.957,1.05,1,0.76,0.972,–,–,–,–,1.11,0.993,0.954,0.819,1.01,0.852,0.773,0.655,0.577,0.616
NCI-H1793,–,–,–,–,–,0.241,0.486,0.303,0.454,–,1.19,1.03,0.718,0.792,–,0.358,0.415,0.506,0.3
NCI-H2342,–,–,–,–,–,0.493,0.585,0.43,0.542,0.653,0.86,0.914,0.708,0.769,–,–,–,–,–
SW 900,–,–,–,–,–,0.481,0.365,0.722,0.468,0.525,0.496,0.507,0.474,0.472,–,–,–,–,–
